Test results published in ChEMBL document CHEMBL3885881, “DrugMatrix”.

Tests used:
Rattus norvegicus [1] = species on record: Rattus norvegicus; assay type: toxicity, organism-based, Sprague-Dawley; settings: in vivo, po, 75 mg/kg, 24 h, route oral GAVAGE, dose level High, time 1 day, vehicle .5 % CMC
Description: DrugMatrix - Regimen: Single

Rattus norvegicus [2] = species on record: Rattus norvegicus; experiment: DrugMatrix - Regimen: Daily Repeat; assay type: toxicity, organism-based, Sprague-Dawley; design: regimen Daily Repeat, gender Male, age 6-8 weeks; settings: in vivo, po, 75 mg/kg, 72 h, route oral GAVAGE, dose level High, time 3 day, vehicle .5 % CMC

Nc1ccc(Cl)cc1 [4-CHLOROANILINE]
ABSOLUTE EOSINOPHIL (Rattus norvegicus [1]; tissue Blood): 269 CELLS/uL | ABSOLUTE LYMPHOCYTE (Rattus norvegicus [1]; tissue Blood): 17566.67 CELLS/uL | ABSOLUTE MONOCYTE (Rattus norvegicus [1]; tissue Blood): 600.33 CELLS/uL | ABSOLUTE SEGMENTED NEUTROPHIL (Rattus norvegicus [1]; tissue Blood): 3397.33 CELLS/uL | BASOPHIL (Rattus norvegicus [1]; tissue Blood): 0% | EOSINOPHIL (Rattus norvegicus [1]; tissue Blood): 1.33% | ERYTHROCYTE COUNT (Rattus norvegicus [1]; tissue Blood): 5.88 x10E6/uL | HEMATOCRIT (Rattus norvegicus [1]; tissue Blood): 36.53% | HEMOGLOBIN (Rattus norvegicus [1]; tissue Blood): 13.03 G/DL | LEUKOCYTE COUNT (Rattus norvegicus [1]; tissue Blood): 21.83 x10E3/uL | LYMPHOCYTE (Rattus norvegicus [1]; tissue Blood): 81.67% | MEAN CORPUSCULAR HEMOGLOBIN (Rattus norvegicus [1]; tissue Blood): 22.17 pg | MEAN CORPUSCULAR HEMOGLOBIN CONCENTRATION (Rattus norvegicus [1]; tissue Blood): 35.7 G/DL | MEAN CORPUSCULAR VOLUME (Rattus norvegicus [1]; tissue Blood): 62.13 fL | MONOCYTE (Rattus norvegicus [1]; tissue Blood): 2.67% | NEUTROPHIL (Rattus norvegicus [1]; tissue Blood): 14.33% | NUCLEATED RED BLOOD CELLS (Rattus norvegicus [1]; tissue Blood): 0 /100WBC | PLATELET COUNT (Rattus norvegicus [1]; tissue Blood): 950.67 x10E3/uL | ALANINE AMINOTRANSFERASE (Rattus norvegicus [1]; tissue Plasma): 53 u/L | ALBUMIN (Rattus norvegicus [1]; tissue Plasma): 4.37 G/DL | ALKALINE PHOSPHATASE (Rattus norvegicus [1]; tissue Plasma): 533.33 u/L | ASPARTATE AMINOTRANSFERASE (Rattus norvegicus [1]; tissue Plasma): 101 u/L | BLOOD UREA NITROGEN (Rattus norvegicus [1]; tissue Plasma): 13.67 mg/dL | CARBON DIOXIDE (Rattus norvegicus [1]; tissue Plasma): 25.67 mmol/L | CHLORIDE (Rattus norvegicus [1]; tissue Plasma): 102.33 MEQ/L | CHOLESTEROL (Rattus norvegicus [1]; tissue Plasma): 75.33 mg/dL | CREATININE (Rattus norvegicus [1]; tissue Plasma): 0.19 mg/dL | GLUCOSE (Rattus norvegicus [1]; tissue Plasma): 168 mg/dL | LACTATE DEHYDROGENASE (Rattus norvegicus [1]; tissue Plasma): 480 u/L | LIPASE (Rattus norvegicus [1]; tissue Plasma): 9.67 u/L | PHOSPHORUS (Rattus norvegicus [1]; tissue Plasma): 13.93 mg/dL | POTASSIUM (Rattus norvegicus [1]; tissue Plasma): 6.69 MEQ/L | SODIUM (Rattus norvegicus [1]; tissue Plasma): 146.3 MEQ/L | TOTAL BILIRUBIN (Rattus norvegicus [1]; tissue Plasma): 0.23 mg/dL | TOTAL PROTEIN (Rattus norvegicus [1]; tissue Plasma): 6.3 G/DL | URIC ACID (Rattus norvegicus [1]; tissue Plasma): 2.2 mg/dL | ABSOLUTE BASOPHIL (Rattus norvegicus [2]; tissue Blood): 0 CELLS/uL | ABSOLUTE EOSINOPHIL (Rattus norvegicus [2]; tissue Blood): 340 CELLS/uL | ABSOLUTE LYMPHOCYTE (Rattus norvegicus [2]; tissue Blood): 18564 CELLS/uL | ABSOLUTE MONOCYTE (Rattus norvegicus [2]; tissue Blood): 396 CELLS/uL | ABSOLUTE SEGMENTED NEUTROPHIL (Rattus norvegicus [2]; tissue Blood): 3900 CELLS/uL | BASOPHIL (Rattus norvegicus [2]; tissue Blood): 0% | EOSINOPHIL (Rattus norvegicus [2]; tissue Blood): 1.67% | ERYTHROCYTE COUNT (Rattus norvegicus [2]; tissue Blood): 5.42 x10E6/uL | HEMATOCRIT (Rattus norvegicus [2]; tissue Blood): 35.1% | HEMOGLOBIN (Rattus norvegicus [2]; tissue Blood): 13.57 G/DL | LEUKOCYTE COUNT (Rattus norvegicus [2]; tissue Blood): 27.87 x10E3/uL | LYMPHOCYTE (Rattus norvegicus [2]; tissue Blood): 79.33% | MEAN CORPUSCULAR HEMOGLOBIN (Rattus norvegicus [2]; tissue Blood): 25.13 pg | MEAN CORPUSCULAR HEMOGLOBIN CONCENTRATION (Rattus norvegicus [2]; tissue Blood): 38.77 G/DL | MEAN CORPUSCULAR VOLUME (Rattus norvegicus [2]; tissue Blood): 64.77 fL | MONOCYTE (Rattus norvegicus [2]; tissue Blood): 1.67% | NEUTROPHIL (Rattus norvegicus [2]; tissue Blood): 17.33% | NUCLEATED RED BLOOD CELLS (Rattus norvegicus [2]; tissue Blood): 1 /100WBC | PLATELET COUNT (Rattus norvegicus [2]; tissue Blood): 1129 x10E3/uL | ALANINE AMINOTRANSFERASE (Rattus norvegicus [2]; tissue Plasma): 48.33 u/L | ALBUMIN (Rattus norvegicus [2]; tissue Plasma): 4.23 G/DL | ALKALINE PHOSPHATASE (Rattus norvegicus [2]; tissue Plasma): 297 u/L | ASPARTATE AMINOTRANSFERASE (Rattus norvegicus [2]; tissue Plasma): 88.67 u/L | BLOOD UREA NITROGEN (Rattus norvegicus [2]; tissue Plasma): 14.67 mg/dL | CARBON DIOXIDE (Rattus norvegicus [2]; tissue Plasma): 26.67 mmol/L | CHLORIDE (Rattus norvegicus [2]; tissue Plasma): 104 MEQ/L | CHOLESTEROL (Rattus norvegicus [2]; tissue Plasma): 52.67 mg/dL | CREATININE (Rattus norvegicus [2]; tissue Plasma): 0.27 mg/dL | GLUCOSE (Rattus norvegicus [2]; tissue Plasma): 226.33 mg/dL | LACTATE DEHYDROGENASE (Rattus norvegicus [2]; tissue Plasma): 200 u/L | LIPASE (Rattus norvegicus [2]; tissue Plasma): 9.67 u/L | PHOSPHORUS (Rattus norvegicus [2]; tissue Plasma): 13.43 mg/dL | POTASSIUM (Rattus norvegicus [2]; tissue Plasma): 6.55 MEQ/L | SODIUM (Rattus norvegicus [2]; tissue Plasma): 147 MEQ/L | TOTAL BILIRUBIN (Rattus norvegicus [2]; tissue Plasma): 0.23 mg/dL | TOTAL PROTEIN (Rattus norvegicus [2]; tissue Plasma): 6.3 G/DL | URIC ACID (Rattus norvegicus [2]; tissue Plasma): 2.03 mg/dL
